The record followed here is patent US20100291168A1, “ANTIMICROBIAL FORMULATIONS COMPRISING A COMBINATION OF A PYRIDINE THIOL AND A BIS-QUINOLINIUM SALT” (priority 2007, published 2010).

Assay [1] deals with P. acnes NCTC 737. Briefly: Minimum Bactericidal Concentration (MBC) assay. It counts as cell-based, Propionibacterium acnes. The method, then:
(§1) The propionibacteria were cultured and maintained on Wilkins-Chalgren Anaerobe Medium (agar and broth) at pH 6.0; all cultures were incubated anaerobically at 37° C. for 72 hours.
(b) Minimum Bactericidal Concentration (MBC) Assay
This assay, normally carried out after an MIC assay, determines the minimum concentration of a compound that is lethal to the micro-organism being tested.
These samples were then individually sub-cultured on antibiotic-free agar medium, under the incubation conditions described above. Following incubation they were examined visually for bacterial growth.
The ratio of MIC to MBC should ideally be as close to 1 as possible.
(§2) The following experiments all used P. acnes NCTC 737 as the test organism.
(§3) MIC, MBC and DDA assays, as described above, were carried out using the test compounds (a) dequalinium chloride (DC), dissolved in ethanol and (b) zinc pyrithione (ZP), dissolved in DMSO. Both compounds were sourced from Sigma-Aldrich, UK.
(§4) The general method of Example 1 was repeated using another bis-quinolinium salt, dequalinium iodide (DI), which was also obtained from Sigma-Aldrich, UK. This compound was tested against P. acnes NCTC 737, both alone and in combination with ZP.

Assay [2] has as its system P. acnes NCTC 737. The assay is described as follows: Minimum Inhibitory Concentration (MIC) assay. In kind it is cell-based, Propionibacterium acnes. How it is done:
as §1
(a) Minimum Inhibitory Concentration (MIC) Assay
This is a standard international method for quantitatively assessing the antimicrobial activity of a compound in a liquid medium. The method used a sterile 96-well microtitre plate, capable of holding about 200 μl of liquid per well. The wells contained liquid culture medium and ranges of decreasing concentrations of the relevant test compound in doubling dilutions (eg, 1000, 500, 250, 125 . . . μg/ml, etc. down to 0.49 μg/ml). The culture medium was as described above.
The wells were inoculated with a liquid suspension of freshly grown micro-organism and incubated under the conditions described above. After incubation, the microtitre plate was examined visually (with the aid of a light box) for cloudiness in each well, which would indicate microbial growth. The MIC value was recorded as the lowest concentration of test compound required to inhibit microbial growth, ie, the lowest concentration for which the liquid in the well remained clear.
The assays were conducted in duplicate and included both negative (culture medium with no micro-organisms) and positive (culture medium plus diluting solvent plus micro-organism) controls.
as §2, §3, §4

Assay [3] relates to P. acnes NCTC 737. Briefly: Disc diffusion / synergy disc diffusion assay ((S)DDA). The following applies: Example 3, zone of inhibition diameter, 50 μg DI or 200 μg ZP per disc, both in DMSO. It counts as cell-based, Propionibacterium acnes. How it is done:
as §1
(c) Disc Diffusion Assay (DDA)
This is an internationally recognised standard method for qualitatively assessing the antimicrobial activity of a compound.
A sterile paper disc was impregnated with a sample of the test compound in a suitable solvent and 30 minutes allowed for the solvents to evaporate (where possible). The disc was then placed on an agar plate onto which the test micro-organism had been inoculated. The plate was then incubated under the conditions described above, following which it was examined visually for signs of microbial growth. […] The diameter of this zone of “inhibition” was measured using a ProtoCOL™ automated zone sizer (Synbiosis, Cambridge, UK).
(d) Synergy Disc Diffusion Assay (SDDA)
This is a variation on the DDA method, in which two compounds are tested together for their combined antimicrobial activity.
Two test compounds A and B were placed on a single paper disc and the above described DDA procedure repeated.
Mixtures of the two test compounds were then subjected to SDDA assays as described above.
For the (S)DDA experiments, 50 μg of the DC was loaded onto each disc, and 200 μg of the ZP. All the (S)DDA experiments were conducted in triplicate.
For the (S)DDA experiments, 50 μg of the DI was loaded onto each disc, and 200 μg of the ZP. The DI and ZP were both dissolved in DMSO.
All the (S)DDA experiments were conducted in triplicate.
In general terms: Agar diffusion results depend on both activity and mobility in agar.

In assay [4] the test system is Cor. mucifaciens ATCC 700355. The assay is described as follows: (S)DDA. In kind it is cell-based, Corynebacterium mucifaciens. The following applies: Table 7, 200 μg DI or 200 μg ZP per disc. How it is done: The activity of a DC/ZP combination was determined, using (S)DDAs, against two further test micro-organisms, namely C. difficile ATCC 7000057 and Cor. mucifaciens ATCC 700355. A DI/ZP combination was also tested against Cor. mucifaciens.
In these tests, 50 μg (for C. difficile) or 200 μg (for Cor. mucifaciens) of the DC was loaded onto each disc. The DI and the ZP were both loaded at 200 μg per disc. All the (S)DDA experiments were conducted in triplicate.

Consider `Cc1cc(N)c2ccccc2[n+]1CCCCCCCCCC[n+]1c(C)cc(N)c2ccccc21.[I-].[I-]` [DI, dequalinium iodide], for which, in the assay on P. acnes NCTC 737 [1], the MIC/MBC ratio came to 0.03. Also, in the assay on P. acnes NCTC 737 [1] (sub-culture after MIC assay), the MBC was 125 µg/mL. Besides, the “activity of compound alone (MIC, MBC, DDA data)” value in the assay with P. acnes NCTC 737 [2] is on record as “active”. Further, the MIC in the assay with P. acnes NCTC 737 [2] (anaerobic, 37° C., 72 hours) stood at 3.9 µg/mL. Further, the DDA was determined as 21.92 mm in the assay on P. acnes NCTC 737 [3] and 22.93 mm in assay [4].

As usually defined, the MBC is the lowest tested concentration that kills the bacteria rather than only halting them. The term MIC denotes the lowest concentration that inhibits growth of the organism.
